US9718828B2 (MERCK SHARP & DOHME CORP., priority 2011, dated 2017)
Counter-ions that a name gives are not always drawn. Like-named read-outs stand apart in the source and are kept apart here.

Target: Btk enzyme (His-Btk) (Homo sapiens (Human), UniProt Q06187)
Assay: Btk enzyme activity, IMAP fluorescence polarization assay (Assay Method A)
[1] = read-out: EC50 Btk activity values - Assay Method A, IMAP-FP, 60 min pre-incubation, 5 μM ATP, class 100-1000 is given as ≧100 nM-<1 μM

Sequence of Btk enzyme (His-Btk) (Q06187 whole entry): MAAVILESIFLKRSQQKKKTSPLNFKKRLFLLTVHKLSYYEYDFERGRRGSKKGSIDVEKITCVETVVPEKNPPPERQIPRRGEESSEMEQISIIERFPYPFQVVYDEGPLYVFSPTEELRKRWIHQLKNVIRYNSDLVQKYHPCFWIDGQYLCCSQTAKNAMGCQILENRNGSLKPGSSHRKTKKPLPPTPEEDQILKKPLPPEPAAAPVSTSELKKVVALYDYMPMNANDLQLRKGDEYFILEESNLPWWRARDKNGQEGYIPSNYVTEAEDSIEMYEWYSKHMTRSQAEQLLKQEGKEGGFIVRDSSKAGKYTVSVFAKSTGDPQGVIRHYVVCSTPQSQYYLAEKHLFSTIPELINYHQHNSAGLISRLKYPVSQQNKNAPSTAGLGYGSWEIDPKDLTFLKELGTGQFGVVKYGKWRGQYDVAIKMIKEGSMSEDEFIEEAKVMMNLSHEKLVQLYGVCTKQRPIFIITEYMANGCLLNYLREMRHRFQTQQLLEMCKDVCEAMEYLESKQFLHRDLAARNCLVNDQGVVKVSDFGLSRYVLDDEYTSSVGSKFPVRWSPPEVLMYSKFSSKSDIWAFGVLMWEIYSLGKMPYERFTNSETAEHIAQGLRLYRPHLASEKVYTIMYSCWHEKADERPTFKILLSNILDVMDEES

SMILES | EC50 [nM] | EC50 [1] [nM]
CCN(CC)c1nc(-c2ccc(C(=O)Nc3ccccn3)cc2)c2c(N)nccn12 [Example 213, 4-(8-amino-3-(diethylamino)imidazo[1,5-a]pyrazin-1-yl)-N-(pyridin-2-yl)benzamide] | 100 to 1000 | –
C[C@@H]1CC[C@@H](c2nc(-c3ccc(C(=O)Nc4cc(C(F)(F)F)ccn4)cc3)c3c(N)nccn23)CN1C(=O)C1CCCO1 (relative stereo) [Example 185, 4-(8-amino-3-((trans)-6-methyl-1-(tetrahydrofuran-2-carbonyl)piperidin-3-yl)imidazo[1,5-a]pyrazin-1-yl)-N-(4-(trifluoromethyl)pyridin-2-yl)benzamide, TFA salt] | 10 to 100 | –
CCc1cnc(NC(=O)c2ccc(-c3nc([C@H]4CC[C@H](OC(C)=O)CC4)n4ccnc(N)c34)cc2)s1 [Example 38, (trans)-4-(8-amino-1-(4-(5-ethylthiazol-2-ylcarbamoyl)phenyl)imidazo [1,5-a]pyrazin-3-yl)cyclohexyl acetate] | 10 to 100 | –
Nc1nccn2c([C@@H]3CCCN(C(=O)C(=O)C(F)(F)F)C3)nc(-c3ccc(C(=O)Nc4cc(C5CC5)ccn4)cc3)c12 [Example 115, (R)-4-(8-amino-3-(1-(3,3,3-trifluoro-2-oxopropanoyl)piperidin-3-yl)imidazo[1,5-a]pyrazin-1-yl)-N-(4-cyclopropylpyridin-2-yl)benzamide] | 100 to 1000 | –
Nc1nccn2c([C@@H]3CCCN(C(=O)Nc4ccccc4Cl)C3)nc(-c3ccc(C(=O)Nc4cc(C5CC5)ccn4)cc3)c12 [Example 120, (R)-3-(8-amino-1-(4-(4-cyclopropylpyridin-2-ylcarbamoyl)phenyl)imidazo [1,5-a]pyrazin-3-yl)-N-(2-chlorophenyl)piperidine-1-carboxamide] | – | < 10
CCNC(=O)N1C[C@H](c2nc(-c3ccc(C(=O)Nc4cc(C(F)(F)F)ccn4)cc3)c3c(N)nccn23)CC[C@H]1C (relative stereo) [Example 186, (trans)-5-(8-amino-1-(4-(4-(trifluoromethyl)pyridin-2-ylcarbamoyl)phenyl)imidazo [1,5-a]pyrazin-3-yl)-N-ethyl-2-methylpiperidine-1-carboxamide, TFA salt] | – | < 10
CCOC(=O)N1C[C@H](c2nc(-c3ccc(C(=O)Nc4cc(C5CC5)ccn4)cc3)c3c(N)nccn23)CC[C@@H]1C (relative stereo) [Example 199, (cis)-ethyl 5-(8-amino-1-(4-(4-cyclopropylpyridin-2-ylcarbamoyl)phenyl)imidazo [1,5-a]pyrazin-3-yl)-2-methylpiperidine-1-carboxylate, TFA salt] | – | < 10
CCOC(=O)N1CCCC(c2cc(-c3ccc(C(=O)Nc4cc(C(F)(F)F)ccn4)cc3)c3c(N)ncnn23)C1 (stereo not drawn) [Example 251, ethyl 3-(4-amino-5-(4-(4-(trifluoromethyl)pyridin-2-ylcarbamoyl)phenyl)pyrrolo[1,2-f][1,2,4]triazin-7-yl)piperidine-1-carboxylate] | < 10 | –
Nc1nccn2c(N3CCC[C@H](NC(=O)C4CCC4)C3)nc(-c3ccc(C(=O)Nc4cc(C(F)(F)F)ccn4)cc3)c12 [Example 223, (S)-4-(8-amino-3-(3-(cyclobutanecarboxamido)piperidin-1-yl)imidazo[1,5-a]pyrazin-1-yl)-N-(4-(trifluoromethyl)pyridin-2-yl)benzamide] | – | < 10
CC(C)C(=O)N1CCOC(c2nc(-c3ccc(C(=O)Nc4cc(C(F)(F)F)ccn4)cc3)c3c(N)nccn23)C1 (stereo not drawn) [Example 173, 4-(8-amino-3-(4-isobutyrylmorpholin-2-yl)imidazo[1,5-a]pyrazin-1-yl)-N-(4-(trifluoromethyl)pyridin-2-yl)benzamide] | < 10 | –
CS(=O)(=O)CCC(=O)N1CCC[C@@H](c2nc(-c3ccc(C(=O)Nc4cc(C(F)(F)F)ccn4)cc3)c3c(N)nccn23)C1 [Example 77, (R)-4-(8-amino-3-(1-(3-(methylsulfonyl)propanoyl)piperidin-3-yl)imidazo[1,5-a]pyrazin-1-yl)-N-(4-(trifluoromethyl)pyridin-2-yl)benzamide] | < 10 | –
C[C@H]1CC[C@@H](c2nc(-c3ccc(C(=O)Nc4ccccn4)cc3)c3c(N)nccn23)CN1C(=O)C1CC(F)(F)C1 (relative stereo) [Example 203, 4-(8-amino-3-((cis)-1-(3,3-difluorocyclobutanecarbonyl)-6-methylpiperidin-3-yl)imidazo[1,5-a]pyrazin-1-yl)-N-(pyridin-2-yl)benzamide, TFA salt] | – | < 10
CCC(=O)C(=O)N1CCC[C@@H](c2nc(-c3ccc(C(=O)Nc4cc(C5CC5)ccn4)cc3)c3c(N)nccn23)C1 [Example 114, (R)-4-(8-amino-3-(1-(2-oxobutanoyl)piperidin-3 yl)imidazo[1,5-a]pyrazin-1-yl)-N-(4-cyclopropylpyridin-2-yl)benzamide] | – | < 10
Nc1ncnc2c1c(-c1ccc(C(=O)Nc3cc(C(F)(F)F)ccn3)cc1)nn2[C@@H]1CCCN(C(=O)C(F)(F)F)C1 [Example 274, (R)-4-(4-amino-1-(1-(2,2,2-trifluoroacetyl)piperidin-3-yl)-1H-pyrazolo[3,4-d]pyrimidin-3-yl)-N-(4-(trifluoromethyl)pyridin-2-yl)benzamide] | 10 to 100 | –
CC1(C(=O)N2CCC[C@@H](n3nc(-c4ccc(C(=O)Nc5cc(C(F)(F)F)ccn5)cc4)c4c(N)ncnc43)C2)COC1 [Example 267, (R)-4-(4-amino-1-(1-(3-methyloxetane-3-carbonyl)piperidin-3-yl)-1H-pyrazolo[3,4-d]pyrimidin-3-yl)-N-(4-(trifluoromethyl)pyridin-2-yl)benzamide] | – | < 10
N#Cc1ccnc(NC(=O)c2ccc(-c3nc([C@@H]4CCCN(C(=O)C5CC5)C4)n4ccnc(N)c34)cc2)c1 [Example 98, (R)-4-(8-amino-3-(1-(cyclopropanecarbonyl)piperidin-3-yl)imidazo[1,5-a]pyrazin-1 yl)-N-(4-cyanopyridin-2-yl)benzamide] | < 10 | –
CCC(=O)N[C@H]1CCC[C@@H](c2nc(-c3ccc(C(=O)Nc4cc(C(F)(F)F)ccn4)cc3)c3c(N)nccn23)C1 (relative stereo) [Example 161, 4-(8-amino-3-((cis)-3-propionamidocyclohexyl)imidazo[1,5-a]pyrazin-1-yl)-N-(4-(trifluoromethyl)pyridin-2-yl)benzamide] | – | < 10
Nc1nccn2c(C3CCOCC3)nc(-c3ccc(C(=O)Nc4ccccn4)cc3)c12 [Example 27, 4-(8-amino-3-(tetrahydro-2H-pyran-4-yl)imidazo[1,5-a]pyrazin-1-yl)-N-(pyridin-2-yl)benzamide] | 10 to 100 | –
CC1(C(=O)N2CCC[C@@H](c3nc(-c4ccc(C(=O)Nc5cc(C(F)(F)F)ccn5)cc4)c4c(N)ncc(C(=O)O)n34)C2)COC1 [Example 300, (R)-8-amino-3-(1-(3-methyloxetane-3-carbonyl)piperidin-3-yl)-1-(4-(4-(trifluoromethyl)pyridin-2-ylcarbamoyl)phenyl)imidazo[1,5-a]pyrazine-5-carboxylic acid] | – | < 10
N#Cc1ccnc(NC(=O)c2ccc(-c3nc(C4CCCC4)n4ccnc(N)c34)cc2)c1 [Example 44, 4-(8-amino-3-cyclopentylimidazo[1,5-a]pyrazin-1-yl)-N-(4-cyanopyridin-2-yl)benzamide, TFA salt] | < 10 | –
COCCC(=O)N1CCC[C@@H](c2nc(-c3ccc(C(=O)Nc4ccccn4)cc3)c3c(N)nccn23)C1 [Example 50, (R)-4-(8-amino-3-(1-(3-methoxypropanoyl)piperidin-3-yl)imidazo[1,5-a]pyrazin-1-yl)-N-(pyridin-2-yl)benzamide] | < 10 | –
CN(C)C1(C(=O)N2CCC[C@@H](c3nc(-c4ccc(C(=O)Nc5cc(C(F)(F)F)ccn5)cc4)c4c(N)nccn34)C2)CCC1 [Example 79, (R)-4-(8-amino-3-(1-(1-(dimethylamino)cyclobutane-carbonyl)piperidin-3-yl)imidazo[1,5-a]pyrazin-1-yl)-N-(4-(trifluoromethyl)pyridin-2-yl)benzamide] | 10 to 100 | –
Nc1nccn2c(N3CCCC(C(=O)N[C@H]4CCOC4)C3)nc(-c3ccc(C(=O)Nc4cc(C(F)(F)F)ccn4)cc3)c12 (stereo partly drawn) [Example 237, 1-(8-amino-1-(4-(4-(trifluoromethyl)pyridin-2-ylcarbamoyl)phenyl)imidazo[1,5-a]pyrazin-3-yl)-N-((S)-tetrahydrofuran-3-yl)piperidine-3-carboxamide, TFA salt] | – | < 10
CC(CO)(CO)C(=O)N1CCC[C@@H](c2nc(-c3ccc(C(=O)Nc4cc(C(F)(F)F)ccn4)cc3)c3c(N)nccn23)C1 [Example 105, (R)-4-(8-amino-3-(1-(3-hydroxy-2-(hydroxymethyl)-2-methylpropanoyl)piperidin-3 yl)imidazo[1,5-a]pyrazin-1-yl)-N-(4-(trifluoromethyl)pyridin-2-yl)benzamide] | – | < 10
Nc1nccn2c([C@@H]3CCCN(CC(O)CO)C3)nc(-c3ccc(C(=O)Nc4cc(C(F)(F)F)ccn4)cc3)c12 (stereo partly drawn) [Example 139, 4-(8-amino-3-((3R)-1-(2,3-dihydroxypropyl)piperidin-3-yl)imidazo[1,5-a]pyrazin-1-yl)-N-(4-(trifluoromethyl)pyridin-2-yl)benzamide, TFA salt] | – | < 10
CCOC(=O)N1CCC[C@@H](c2nc(-c3ccc(C(=O)Nc4ccccn4)cc3)c3c(N)nccn23)C1 [Example 47, (R)-ethyl 3-(8-amino-1-(4-(pyridin-2-ylcarbamoyl)phenyl)imidazo[1,5-a]pyrazin-3-yl)piperidine-1-carboxylate] | – | < 10
COCCC(=O)N[C@@H]1CCC[C@@H](c2nc(-c3ccc(C(=O)Nc4cc(C(F)(F)F)ccn4)cc3)c3c(N)nccn23)C1 (relative stereo) [Example 166, 4-(8-amino-3-((trans)-3-(3-methoxypropanamido)cyclohexyl)imidazo[1,5-a]pyrazin-1-yl)-N-(4-(trifluoromethyl)pyridin-2-yl)benzamide] | – | < 10
